Experimental data published in patent US20230310372A1 (Amarin Pharmaceuticals Ireland Limited, priority 2013, published 2023).
Where “and” joins values, the source holds several entries; their conditions need not be identical. Equal values may be shown once.

Experiment: Phase 1, open-label, crossover drug-drug interaction study: steady-state plasma pharmacokinetics of atorvastatin and its two active metabolites with or without ethyl eicosapentaenoate
Details: for Effect of co-administration of ethyl eicosapentaenoate on Tmax: atorvastatin 80 mg alone versus with 4 g ethyl eicosapentaenoate; for Change of mean plasma concentrations over time: subjects concomitantly administered 4 g of ethyl eicosapentaenoate, FIG. 1B, 1C
Description: Data for Cmax and AUC0-24 are reported as means (SD); data for Tmax are reported as median values.

[1] = 80 mg atorvastatin co-administered with 4 g ethyl eicosapentaenoate
[2] = atorvastatin + ethyl eicosapentaenoate group divided by atorvastatin only group
[3] = atorvastatin + ethyl eicosapentaenoate versus atorvastatin only

## CC(C)c1c(C(=O)Nc2ccccc2O)c(-c2ccccc2)c(-c2ccc(F)cc2)n1CCC(O)CC(O)CC(=O)O (stereo not drawn) [2-Hydroxyatorvastatin, 2-hydroxyatorvastatin]
80 mg atorvastatin alone
  AUC0-24, mean: 213.1 ng·h/mL
  Cmax, mean: 43.2 ng/mL
  Tmax, median: 1.25 h
[1]
  AUC0-24, mean: 196.7 ng·h/mL
  Cmax, mean: 44.5 ng/mL
  Tmax, median: 1.25 h
A + EPA = atorvastatin (80 mg) co-administered with ethyl eicosapentaenoate (4 g)
  AUC0-24, LSGM (least squares geometric mean): 30.9 ng·h/mL
  Effect of co-administration of ethyl eicosapentaenoate on Tmax: did not significantly affect
  Change of mean plasma concentrations over time: did not significantly change
[2]
  AUC0-24, Ratio of LSGM: 0.91 and 0.92
  Cmax, Ratio of LSGM: 1.04 and 0.97
[3]
  AUC0-24, 90% CI of the ratio: 82.8-99.7 and 82.3-103
  Cmax, 90% CI of the ratio: 89.1-121 and 80.0-117

## CC(C)c1c(C(=O)Nc2ccc(O)cc2)c(-c2ccccc2)c(-c2ccc(F)cc2)n1CC[C@@H](O)C[C@@H](O)CC(=O)O [4-Hydroxyatorvastatin, 4-hydroxyatorvastatin]
80 mg atorvastatin alone
  AUC0-24, mean: 36.7 ng·h/mL
  Cmax, mean: 4.1 ng/mL
  Tmax, median: 1.50 h
[1]
  AUC0-24, mean: 34.3 ng·h/mL
  Cmax, mean: 4.2 ng/mL
  Tmax, median: 1.50 h
  Effect of co-administration of ethyl eicosapentaenoate on Tmax: did not significantly affect
  Change of mean plasma concentrations over time: did not significantly change
